# Measured values from patent publication US20240352401A1, “FURFURAL-RESISTANT STRAIN AND METHOD FOR IMPROVING FURFURAL-RESISTANT OF STRAIN” (Korea Institute of Science and Technology, priority 2023, published 2024).
# Tests used:
# [1] = test system: wild-type Yarrowia lipolytica strain (PO1f, ATCC MYA-2613); assay: Growth inhibition and glucose consumption of the parent strain according to furfural concentration (Reference Example 1); assay type: cell-based
# From the text: Confirmation of the degree of growth inhibition according to furfural in a parent strain Prior to the production of furfural-resistant strains, Yarrowia lipolytica PO1f strain having accession number ATCC MYA-2613, which are wild-type Yarrowia lipolytica, was selected as a parent strain, and the degree of growth inhibition and the degree of glucose consumption according to the concentration of furfural in the wild-type Yarrowia lipolytica strain, and the concentrations of furfural and furoic acid in the culture medium according to the cell culture time were confirmed.
# Specifically, as the culture medium, a minimal medium (YSC medium (Yeast Synthetic Complete medium)) containing 6.7 g/L yeast nitrogen base (YNB), 20 g/L glucose as a carbon source and supplemented with complete supplement mixture (CSM) or CSM-Leu or CSM-Leu-Ura (MP Biomedicals, Solon, OH, USA) used. Furfural was added to the medium at concentrations of 0.1 g/L, 0.2 g/L, 0.3 g/L, 0.4 g/L or 0.5 g/L, respectively, and the growth rate was compared with that when furfural was not added. The culture was inoculated with the wild-type Yarrowia lipolytica strain with an initial OD600 value of 0.2 in 20 mL of the culture medium in a 100 mL Erlenmeyer flask, and then proceeded with shaking culture at 28° C. at 200 rpm. In this case, the wild-type strain is Yarrowia lipolytica PO1f strain with accession number ATCC MYA-2613. The “OD600” refers to the absorbance or optical density at a wavelength of 600 nm. It is possible to measure the density or concentration of microorganisms or cells in a sample by using the measured OD600.
# [2] = test system: Yarrowia lipolytica strain; settings: very low concentration (~0.5 g/L) of furfural; cited from earlier work
# [3] = furfural 0.1-0.5 g/L in YSC medium, 20 g/L glucose, 28° C., 200 rpm
smiles,measurement,setting,value
O=Cc1ccco1 [furfural],initial growth of the wild-type strain,[1]; 0.2 g/L or more of furfural,growth was delayed
same,growth of the wild-type strain,[1]; 0.5 g/L of furfural,no growth was observed
same,growth of the wild-type Yarrowia lipolytica strain as the furfural concentration increased,[1]; [3],clearly inhibited
same,rate of glucose consumption as the furfural concentration increased,[1]; [3],reduced
same,cell growth of Yarrowia lipolytica strain,[2],significantly inhibited
